From the supplement of paper PMC10307832

How the values were obtained:
Assay in all cases: relative viability (nuclei count vs DMSO), 5 days (fraction); higher = more cells survive
[1] = compound: CCn1c(-c2nonc2N)nc2cnc(Oc3cccc(NC(=O)c4ccc(OCCN5CCOCC5)cc4)c3)cc21 + CS(=O)(=O)N1CCN(Cc2cc3nc(-c4cccc5[nH]ncc45)nc(N4CCOCC4)c3s2)CC1 [Pictilisib] (partner 1 µM)
Summary of the method: (§1)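 Each reported value is a median over duplicate plates. It expresses relative viability: treated-well nuclei count divided by vehicle-well nuclei count. Lung cancer cell lines in 1536-well plates were dosed by pin tool a day after seeding, alone with one drug or with a fixed anchor-drug dose plus five library-drug doses (not always all listed) in √10 steps, and nuclei were counted after 5 days.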

[2] = compound: CCC1=CN=CN=C1N2CCN(CC2)CC3=NC4=C(N3)C=C(C=C4)C(F)(F)F + C[C@@H](Oc1cc(-c2cnn(C3CCNCC3)c2)cnc1N)c1c(Cl)ccc(F)c1Cl [Crizotinib] (partner 1 µM)
Summary of the method: as §1

[3] = compound: CCn1c(-c2nonc2N)nc2cnc(Oc3cccc(NC(=O)c4ccc(OCCN5CCOCC5)cc4)c3)cc21 + O=C(c1cc(Cc2n[nH]c(=O)c3ccccc23)ccc1F)N1CCN(C(=O)C2CC2)CC1 [Olaparib] (partner 8 µM)
Summary of the method: as §1

[4] = compound: CCC1=CN=CN=C1N2CCN(CC2)CC3=NC4=C(N3)C=C(C=C4)C(F)(F)F + CC(=O)Nc1cccc(-n2c(=O)n(C3CC3)c(=O)c3c(Nc4ccc(I)cc4F)n(C)c(=O)c(C)c32)c1 [Trametinib] (partner 0.02 µM)
Summary of the method: as §1

Cell Line	relative viability ([1]; first compound 0.04 µM)	relative viability ([1]; first compound 0.1265 µM)	relative viability ([1]; first compound 0.4 µM)	relative viability ([1]; first compound 1.265 µM)	relative viability ([1]; first compound 4 µM)	relative viability ([2]; first compound 0.04 µM)	relative viability ([2]; first compound 0.1265 µM)	relative viability ([2]; first compound 0.4 µM)	relative viability ([2]; first compound 1.265 µM)	relative viability ([2]; first compound 4 µM)	relative viability ([3]; first compound 0.04 µM)	relative viability ([3]; first compound 0.1265 µM)	relative viability ([3]; first compound 0.4 µM)	relative viability ([3]; first compound 1.265 µM)	relative viability ([3]; first compound 4 µM)	relative viability ([4]; first compound 0.04 µM)	relative viability ([4]; first compound 0.1265 µM)	relative viability ([4]; first compound 0.4 µM)	relative viability ([4]; first compound 1.265 µM)	relative viability ([4]; first compound 4 µM)
HCC-15	0.955	0.718	0.701	0.664	0.744	0.75	0.78	0.819	0.946	1.06	0.745	0.737	0.766	0.581	0.542	0.36	0.392	0.372	0.368	0.369
LCLC-103H	0.764	0.596	0.435	0.455	0.576	1.09	1.01	1.04	1	1.16	0.908	0.816	0.712	0.717	0.715	0.724	0.731	0.673	0.683	0.639
NCI-H2347	0.94	0.648	1.05	0.556	0.563	0.776	0.684	0.759	0.601	0.749	0.549	0.587	0.824	0.383	0.448	0.295	0.333	0.313	0.249	0.293
NCI-H1792	0.267	0.28	–	0.231	0.285	0.881	0.875	0.94	0.958	1.01	0.449	0.345	0.338	0.244	0.37	0.585	0.389	0.403	–	0.522
NCI-H647	0.614	0.307	0.249	0.207	0.276	1.12	1.13	–	1.04	1.19	0.718	0.512	0.428	0.348	0.302	0.501	0.543	0.469	0.238	0.448
NCI-H520	0.326	0.31	0.256	0.265	0.182	0.73	0.784	0.837	0.796	1.12	0.432	0.347	0.264	0.237	0.237	0.784	0.583	0.582	0.582	0.593
HCC-366	0.124	0.151	0.0942	0.0463	0.0657	0.622	0.493	0.579	–	1.15	0.334	0.303	0.416	0.0675	0.0475	0.344	0.372	0.349	0.285	0.269
NCI-H2085	0.53	0.692	0.664	0.596	0.524	0.86	0.909	0.93	0.892	0.948	0.832	0.693	0.632	0.573	0.559	0.456	0.369	0.401	0.43	0.491
PC-3 [JPC-3]	0.919	0.775	0.68	0.723	0.714	0.989	0.919	0.948	0.92	0.934	1.13	1.14	0.966	0.746	0.861	–	0.632	0.671	0.634	0.682
HOP-62	0.88	0.757	0.599	0.535	0.433	0.777	1.09	0.931	1.06	0.896	0.679	0.379	0.372	–	0.351	0.424	0.378	0.373	0.346	0.355
NCI-H2126	0.568	0.525	0.461	0.567	0.649	1.01	1	0.959	1.01	1.1	1.09	0.966	0.907	0.889	0.854	0.601	0.546	0.565	0.536	0.513
NCI-H2087	–	1.07	0.981	0.881	0.785	0.897	0.898	0.921	0.809	0.846	0.802	0.539	0.559	0.483	0.586	0.172	0.226	0.244	0.215	0.189
RERF-LC-KJ	0.541	0.452	0.516	0.476	0.377	0.761	0.729	0.881	0.913	0.982	0.898	0.84	0.759	0.447	0.388	0.795	0.798	0.821	0.76	0.774
H3255	0.63	0.593	0.517	0.473	0.52	0.864	0.888	0.794	0.757	0.941	0.532	0.542	0.501	0.364	0.383	0.639	0.583	0.572	0.522	0.599
EMC-BAC-2	0.655	0.517	0.395	0.382	0.339	0.779	0.734	0.77	0.889	1.03	0.474	0.42	0.38	0.27	0.292	–	0.857	0.841	0.891	0.951
CAL-12T	0.486	0.549	0.525	–	0.408	0.629	0.621	0.805	0.808	1.12	0.825	0.795	0.73	0.635	0.539	0.256	0.352	0.356	0.267	0.37
NCI-H661	0.415	0.457	0.33	0.202	0.288	0.996	0.943	0.964	0.951	1.1	0.693	0.757	0.749	0.579	0.489	0.638	0.591	0.508	0.471	0.49
SK-MES-1	0.365	0.355	0.386	0.422	0.323	1.01	1.01	0.942	1.09	1.19	0.772	0.721	0.656	0.568	0.483	0.569	0.503	0.582	0.516	0.563
NCI-H1355	0.446	0.418	0.338	0.32	0.277	1.07	1.01	1	1.14	1.15	0.731	0.832	0.739	0.649	0.61	0.435	0.395	0.426	0.331	0.451
PC-14	1.06	0.708	0.751	0.619	0.666	1.02	0.781	0.976	0.915	1.06	0.27	0.206	0.287	0.309	0.326	0.828	0.808	0.714	0.71	0.779
LK-2	0.711	0.777	0.615	0.255	0.392	0.331	0.181	0.212	0.486	1.07	1.13	0.745	0.367	0.326	0.555	0.854	0.727	0.666	0.452	0.567
NCI-H1650	0.9	0.595	0.551	0.502	0.527	0.942	0.853	1.03	1.06	1.42	0.74	0.849	0.744	0.696	0.715	0.499	0.707	0.573	0.499	0.672
NCI-H441	0.582	0.541	0.438	0.386	0.376	0.742	0.627	0.789	0.859	1.04	0.74	0.589	0.454	0.439	0.394	0.482	0.452	0.464	0.37	0.499
NCI-H727	0.613	0.741	0.604	0.487	0.345	0.986	0.863	0.712	–	0.919	–	0.801	0.657	0.487	0.59	0.346	0.325	0.386	0.323	0.379
NCI-H23	0.721	0.613	–	0.433	0.343	0.591	0.559	0.574	0.689	0.989	0.33	0.3	0.359	0.253	0.177	0.405	0.409	0.396	0.375	0.385
NCI-H596	0.399	0.416	0.37	0.359	0.389	0.91	1.06	0.971	1	1.14	0.622	0.666	0.739	0.739	0.585	0.821	0.804	0.724	0.788	0.647
NCI-H460	0.462	0.404	0.207	0.122	0.182	1.06	1.03	0.886	0.832	1.14	0.545	0.383	0.458	0.085	0.138	0.152	0.203	0.11	0.0864	0.0963
